Measured values from patent publication US20090226527A1, “Particulate-stabilized injectable pharmacutical compositions of posaconazole” (priority 2004, published 2009).
Values after ≈ are worked out from the molar mass of the structure shown. Values joined by “and” are separate entries in the source; they are usually repeats but may differ in a detail not shown here. Identical values can stand only once. Like-named read-outs stand apart in the source and are kept apart here.

Tested on: infectious agents (strains tested)
Assay: organism not typed
Assay type: cell-based

Structure (SMILES): OC(Cn1cncn1)(Cn1cncn1)c1ccc(F)cc1F [FLZ]
- Geometric Mean MIC: 16.450 µg/mL and 19.027 µg/mL
- Geometric Mean MIC (Absidia spp): 143.675 µg/mL
- Geometric Mean MIC (Apophysomyces spp): 128.000 µg/mL
- MIC[90] (Apophysomyces spp): (128.0) μg/mL
- Geometric Mean MIC (Aspergillus flavus): 220.898 µg/mL
- MIC[90] (Aspergillus fumigatus): 512.0 µg/mL (≈ 1670 µM)
- Geometric Mean MIC (Aspergillus nidulans): 76.109 µg/mL
- MIC[90] (Aspergillus nidulans): (32.0-128.0) μg/mL
- Geometric Mean MIC (Aspergillus niger): 234.753 µg/mL
- Geometric Mean MIC (Aspergillus sydowii): 115.933 µg/mL
- Geometric Mean MIC (Aspergillus terreus): 208.327 µg/mL
- Geometric Mean MIC (Aspergillus ustus): 172.275 µg/mL
- Geometric Mean MIC (Bipolaris spp): 64.000 µg/mL
- MIC[90] (Bipolaris spp): (64.0) μg/mL
- Geometric Mean MIC (Bjerkandera adusta): 4.000 µg/mL
- MIC[90] (Bjerkandera adusta): 4.0 µg/mL (≈ 13.1 µM)
- Geometric Mean MIC (Blastomyces dermatitidis): 2.191 µg/mL
- MIC[90] (Blastomyces dermatitidis): 16.0 µg/mL (≈ 52.2 µM)
- Geometric Mean MIC (Candida albicans): 0.415 µg/mL
- MIC[90] (Candida albicans): 2.0 µg/mL (≈ 6.53 µM)
- Geometric Mean MIC (Candida dubliniensis): 0.454 µg/mL
- MIC[90] (Candida dubliniensis): 32.0 µg/mL (≈ 104 µM)
- Geometric Mean MIC (Candida famata): 4.084 µg/mL
- MIC[90] (Candida famata): 32.0 µg/mL (≈ 104 µM)
- Geometric Mean MIC (Candida glabrata): 9.719 µg/mL
- MIC[90] (Candida glabrata): 64.0 µg/mL (≈ 209 µM)
- Geometric Mean MIC (Candida guilliermondii): 4.000 µg/mL
- MIC[90] (Candida guilliermondii): 32.0 µg/mL (≈ 104 µM)
- Geometric Mean MIC (Candida kefyr): 0.500 µg/mL
- MIC[90] (Candida kefyr): 4.0 µg/mL (≈ 13.1 µM)
- Geometric Mean MIC (Candida krusei): 32.521 µg/mL
- MIC[90] (Candida krusei): 64.0 µg/mL (≈ 209 µM)
- Geometric Mean MIC (Candida lusitaniae): 0.627 µg/mL
- MIC[90] (Candida lusitaniae): 2.0 µg/mL (≈ 6.53 µM)
- Geometric Mean MIC (Candida parapsilosis): 0.910 µg/mL
- MIC[90] (Candida parapsilosis): 2.0 µg/mL (≈ 6.53 µM)
- Geometric Mean MIC (Candida rugosa): 3.391 µg/mL
- MIC[90] (Candida rugosa): 16.0 µg/mL (≈ 52.2 µM)
- Geometric Mean MIC (Candida tropicalis): 0.961 µg/mL
- MIC[90] (Candida tropicalis): 4.0 µg/mL (≈ 13.1 µM)
- Geometric Mean MIC (Candida zeylanoides): 0.354 µg/mL
- MIC[90] (Candida zeylanoides): (0.125-1.0) μg/mL
- Geometric Mean MIC (Cryptococcus laurentii): 5.040 µg/mL
- MIC[90] (Cryptococcus laurentii): (4.0-8.0) μg/mL
- Geometric Mean MIC (Cryptococcus neoformans): 1.781 µg/mL
- MIC[90] (Cryptococcus neoformans): 8.0 µg/mL (≈ 26.1 µM)
- Geometric Mean MIC (Curvularia spp): 16.000 µg/mL
- MIC[90] (Curvularia spp): (16.0) μg/mL
- Geometric Mean MIC (Epidermophyton floccosum): 1.447 µg/mL
- MIC[90] (Epidermophyton floccosum): 2.0 µg/mL (≈ 6.53 µM)
- Geometric Mean MIC (Exophiala dermatidis): 8.000 µg/mL
- MIC[90] (Exophiala dermatidis): (8.0) μg/mL
- Geometric Mean MIC (Fonsecae pedrosoi): 64.000 µg/mL
- MIC[90] (Fonsecae pedrosoi): (64.0) μg/mL
- Geometric Mean MIC (Kluyveromyces marxianus): 0.500 µg/mL
- MIC[90] (Kluyveromyces marxianus): (0.25-1.0) μg/mL
- Geometric Mean MIC (Microsporum canis): 2.000 µg/mL
- MIC[90] (Microsporum canis): 4.0 µg/mL (≈ 13.1 µM)
- Geometric Mean MIC (Microsporum gypseum): 16.000 µg/mL
- MIC[90] (Microsporum gypseum): (4.0-128.0) μg/mL
- Geometric Mean MIC (Microsporum persicolor): 128.000 µg/mL
- MIC[90] (Microsporum persicolor): (128.0) μg/mL
- Geometric Mean MIC (Mucor spp): 207.937 µg/mL
- Geometric Mean MIC (Paecilomyces spp): 141.323 µg/mL
- Geometric Mean MIC (Paracoccidioides brasiliensis): 0.766 µg/mL
- MIC[90] (Paracoccidioides brasiliensis): 4.0 µg/mL (≈ 13.1 µM)
- Geometric Mean MIC (Penicillium spp): 220.996 µg/mL
- Geometric Mean MIC (Pichia anomala): 2.670 µg/mL
- MIC[90] (Pichia anomala): 4.0 µg/mL (≈ 13.1 µM)
- Geometric Mean MIC (Pichia etchel): 0.125 µg/mL
- MIC[90] (Pichia etchel): (0.125) μg/mL
- Geometric Mean MIC (Pichia ohmeri): 4.000 µg/mL
- MIC[90] (Pichia ohmeri): (4.0) μg/mL
- Geometric Mean MIC (Pseudallescheria boydii): 41.237 µg/mL
- MIC[90] (Pseudallescheria boydii): 128.0 µg/mL (≈ 418 µM)
- Geometric Mean MIC (Ramichloridium obovoideum): 22.627 µg/mL
- MIC[90] (Ramichloridium obovoideum): (16.0-32.0) μg/mL
- Geometric Mean MIC (Rhizopus spp): 229.461 µg/mL
- Geometric Mean MIC (Saccharomyces cerevisiae): 2.845 µg/mL
- MIC[90] (Saccharomyces cerevisiae): 16.0 µg/mL (≈ 52.2 µM)
- Geometric Mean MIC (Scedosporium apiospermum): 84.449 µg/mL
- Geometric Mean MIC (Trichophyton mentagrophytes): 9.190 µg/mL
- MIC[90] (Trichophyton mentagrophytes): 64.0 µg/mL (≈ 209 µM)
- Geometric Mean MIC (Trichophyton raubitschekii): 128.000 µg/mL
- MIC[90] (Trichophyton raubitschekii): (128.0) μg/mL
- Geometric Mean MIC (Trichophyton rubrum): 4.407 µg/mL
- MIC[90] (Trichophyton rubrum): 32.0 µg/mL (≈ 104 µM)
- Geometric Mean MIC (Trichophyton soudanense): 128.000 µg/mL
- MIC[90] (Trichophyton soudanense): (128.0) μg/mL
- Geometric Mean MIC (Trichophyton terrestre): 1.000 µg/mL
- MIC[90] (Trichophyton terrestre): (1.0) μg/mL
- Geometric Mean MIC (Trichophyton tonsurans): 3.775 µg/mL
- MIC[90] (Trichophyton tonsurans): 32.0 µg/mL (≈ 104 µM)
- Geometric Mean MIC (Trichosporon spp): 12.699 µg/mL
- MIC[90] (Trichosporon spp): (4.0-64.0) μg/mL
- Geometric Mean MIC (Yarrowia lipolytica): 1.741 µg/mL
- MIC[90] (Yarrowia lipolytica): (0.125-32.0) μg/mL
